Article PMC7801616, “Surface hydrophobics mediate functional dimerization of CYP121A1 of Mycobacterium tuberculosis” (Scientific Reports, 2021)

Assays:
[1] = test system: WT CYP121A1 heme thiolate-CO complex
[2] = test system: CYP121A1 dimer; conditions: cited from earlier work
[3] = test system: Mtb; conditions: cited from earlier work
[4] = test system: WT CYP121A1

SMILES: O=C1N[C@@H](Cc2ccc(O)cc2)C(=O)N[C@H]1Cc1ccc(O)cc1 [cYY, cyclo-L-Tyr-L-Tyr]
- change of heme thiolate-CO complex stability with bound substrate [1]: little change

SMILES: Clc1ccccc1C(c1ccccc1)(c1ccccc1)n1ccnc1 [clotrimazole]
- effect on dimerization of the enzyme [2]: disrupts dimerization of the enzyme

SMILES: Clc1ccc(COC(Cn2ccnc2)c2ccc(Cl)cc2Cl)cc1 (centres unmarked) [econazole]
- effect on dimerization of the enzyme [2]: disrupts dimerization of the enzyme

SMILES: CC(=O)N1CCN(c2ccc(OCC3COC(Cn4ccnc4)(c4ccc(Cl)cc4Cl)O3)cc2)CC1 (centres unmarked) [ketoconazole]
- inhibition of Mtb growth [3]: does not significantly inhibit Mtb growth
- effect of ligand on thermal stability [4]: modest increase in the stability
